The source of these data is patent US20100063007A1, “PESTICIDE C[…]-[…] AND AN I[…] SUBSTANCE” (BAYER CROPSCIENCE AG, priority 2006, published 2010).

The structures appear in SMILES notation.

In one experiment the test system is Plutella xylostella. The experiment is described as follows: Efficacy Example A: Plutella xylostella test (cabbage leaf dip, larval mortality). The class given is in vivo. To be noted: mortality of larvae after 6 days. As for the experimental part: Efficacy Example A: Plutella xylostella Test
(§1) After a period of time of 6 days, the mortality is determined. 100% means that all the caterpillars have been killed; 0% means that none of the caterpillars have been killed.

For a further experiment, the system named is Spodoptera frugiperda. Briefly: Efficacy Example B: Spodoptera frugiperda test (cabbage leaf dip, larval mortality). Type of experiment: in vivo. Conditions: mortality of larvae after 6 days. As for the experimental part:
Efficacy Example B: Spodoptera frugiperda Test
as §1

`CN/C(=N\[N+](=O)[O-])NCc1cnc(Cl)s1` [clothianidin]: the “Efficacy (%)” value in the experiment on Plutella xylostella (rate of application 100 ppm) was found to be 80%. With `O=[N+]([O-])NC1=NCCN1Cc1ccc(Cl)nc1` [imidacloprid], the “Efficacy (%)” value in the experiment on Spodoptera frugiperda (rate of application 4 ppm) is listed as 30%. Regarding `N#C/N=C1\SCCN1Cc1ccc(Cl)nc1` [thiacloprid], the “Efficacy (%)” value with Plutella xylostella (rate of application 20 ppm) amounted to 5%. Regarding `CN1COCN(Cc2cnc(Cl)s2)/C1=N\[N+](=O)[O-]` [thiamethoxam], the “Efficacy (%)” value in the experiment with Spodoptera frugiperda (rate of application 20 ppm) was found to be 0%.
